Reference: ChEMBL document CHEMBL1201862, “PubChem BioAssay data set” (2004)
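Assay format: 96-well plates, 48-hour exposure. Here, GI50 denotes the concentration required for 50% inhibition of growth.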 Calls of active or inactive are those of the source. Rule as the data show it: active = GI50 up to about 1.1 µM and inactive = higher.

Key:
Test in all cases: inhibition of tumour cell growth, NCI panel, 48 h
SW-620 = test system: SW-620
SN12C = test system: SN12C
RPMI-8226 = test system: RPMI-8226
A549 = test system: A549
SNB-19 = test system: SNB-19
UACC-257 = test system: UACC-257
UACC-62 = test system: UACC-62
SF-268 = test system: SF-268
MDA-N = test system: MDA-N
BT-549 = test system: BT-549
NCI-H226 = test system: NCI-H226
CCRF-CEM = test system: CCRF-CEM
ACHN = test system: ACHN
NCI-H522 = test system: NCI-H522
NCI-H460 = test system: NCI-H460
HL-60 = test system: HL-60
MOLT-4 = test system: MOLT-4
NCI/ADR-RES = test system: NCI/ADR-RES
HOP-92 = test system: HOP-92
UO-31 = test system: UO-31

Measured: GI50

COC1C(OC(=O)c2ccc(C)[nH]2)C(O)C(Oc2ccc3c(O)c(NC(=O)c4ccc(O)c(CC=C(C)C)c4)c(=O)oc3c2Cl)OC1(C)C (stereo not given)
inactive: SW-620 18.5 µM | SN12C 20.7 µM | RPMI-8226 8.22 µM | A549 24.3 µM | SNB-19 15.7 µM | UACC-257 54 µM | UACC-62 15.7 µM | SF-268 17.3 µM | MDA-N 23 µM | BT-549 17 µM | NCI-H226 12.5 µM | CCRF-CEM 18.1 µM | ACHN 38.3 µM | NCI-H522 13.2 µM | NCI-H460 21.2 µM | HL-60 26.3 µM | MOLT-4 16.2 µM

CCOC(=O)NC
inactive: SW-620 > 100 µM | NCI/ADR-RES > 100 µM | SN12C > 100 µM | RPMI-8226 > 100 µM | A549 > 100 µM | HOP-92 > 100 µM | SNB-19 > 100 µM | UACC-257 > 100 µM | UACC-62 > 100 µM | SF-268 > 100 µM | MDA-N > 100 µM | BT-549 > 100 µM | CCRF-CEM > 100 µM | ACHN > 100 µM | NCI-H460 > 100 µM | HL-60 > 100 µM | UO-31 > 100 µM

N=C(CC/C(N)=N/O)NO
inactive: SW-620 > 100 µM | NCI/ADR-RES > 100 µM | SN12C > 100 µM | A549 > 100 µM | HOP-92 > 100 µM | SNB-19 > 100 µM | UACC-257 > 100 µM | UACC-62 > 100 µM | SF-268 > 100 µM | MDA-N > 100 µM | BT-549 > 100 µM | NCI-H226 > 100 µM | ACHN > 100 µM | NCI-H522 > 100 µM | NCI-H460 > 100 µM | UO-31 > 100 µM | MOLT-4 > 100 µM

CSc1[nH]cnc1C(N)=S
inactive: SW-620 > 100 µM | NCI/ADR-RES > 100 µM | RPMI-8226 > 100 µM | A549 > 100 µM | SNB-19 > 100 µM | UACC-257 > 100 µM | UACC-62 > 100 µM | SF-268 > 100 µM | MDA-N > 100 µM | BT-549 > 100 µM | NCI-H226 > 100 µM | ACHN > 100 µM | NCI-H522 > 100 µM | HL-60 > 100 µM | UO-31 > 100 µM | MOLT-4 > 100 µM

COc1ccc(C2OCCN2C)cc1 (stereo not given)
inactive: SW-620 > 100 µM | NCI/ADR-RES > 100 µM | RPMI-8226 > 100 µM | A549 > 100 µM | HOP-92 > 100 µM | SNB-19 > 100 µM | UACC-257 > 100 µM | UACC-62 > 100 µM | SF-268 > 100 µM | MDA-N > 100 µM | BT-549 > 100 µM | NCI-H226 > 100 µM | CCRF-CEM > 100 µM | ACHN > 100 µM | NCI-H522 > 100 µM | NCI-H460 87.1 µM | UO-31 > 100 µM | MOLT-4 > 100 µM

CCOC(=O)c1cc(C(O)P2(=O)N(CC(C)(C)C)[C@@H]3CCCC[C@H]3N2CC(C)(C)C)cn1C(=O)OC(C)(C)C (stereo not given in full)
inactive: SW-620 16.2 µM | NCI/ADR-RES 16.8 µM | SN12C 13.3 µM | RPMI-8226 12.7 µM | A549 15.7 µM | SNB-19 19.5 µM | UACC-257 14.4 µM | UACC-62 13.7 µM | SF-268 15.8 µM | MDA-N 14.8 µM | BT-549 17 µM | NCI-H226 20.6 µM | ACHN 28.1 µM | NCI-H522 13.8 µM | HL-60 24.5 µM | UO-31 15.3 µM | MOLT-4 12.8 µM

CC1=C/C(=N\O)C(C(O)(C(F)(F)F)C(F)(F)F)C(C)(C)C1 (stereo not given)
inactive: SW-620 > 10 µM | NCI/ADR-RES > 10 µM | SN12C > 10 µM | A549 > 10 µM | HOP-92 > 10 µM | SNB-19 > 10 µM | UACC-257 > 10 µM | UACC-62 > 10 µM | SF-268 > 10 µM | MDA-N > 10 µM | BT-549 > 10 µM | NCI-H226 > 10 µM | CCRF-CEM > 10 µM | ACHN > 10 µM | NCI-H522 > 10 µM | NCI-H460 > 10 µM | UO-31 > 10 µM | MOLT-4 > 10 µM

CC1=C(C(=O)Nc2ccccc2C)C(c2ccc(C3C(C(=O)Nc4ccccc4C)=C(C)NC(C)=C3C(=O)Nc3ccccc3C)cc2)C(C(=O)Nc2ccccc2C)=C(C)N1
inactive: SW-620 2.49 µM | SN12C 1.71 µM | RPMI-8226 2.51 µM | A549 10.8 µM | HOP-92 8.38 µM | SNB-19 11.9 µM | UACC-257 2.8 µM | UACC-62 2.03 µM | SF-268 2.58 µM | MDA-N 5.6 µM | BT-549 2.75 µM | NCI-H226 14.1 µM | CCRF-CEM 1.95 µM | ACHN 4.52 µM | NCI-H522 1.89 µM | NCI-H460 9.04 µM | HL-60 2.53 µM | UO-31 13.4 µM | MOLT-4 2.48 µM

COc1cc2c(cc1OCCCCN1C(=O)c3cccc4cccc(c34)C1=O)N=C[C@@H]1CCCN1C2=O
inactive: SW-620 4.92 µM | NCI/ADR-RES 6.52 µM | SN12C 3.53 µM | RPMI-8226 2.69 µM | A549 5.68 µM | HOP-92 6.18 µM | SNB-19 6.17 µM | UACC-257 7.05 µM | UACC-62 3.47 µM | SF-268 4.92 µM | MDA-N 2.31 µM | BT-549 3.52 µM | NCI-H226 8.36 µM | CCRF-CEM 1.64 µM | ACHN 2.22 µM | NCI-H522 1.68 µM | NCI-H460 3.96 µM | UO-31 1.68 µM | MOLT-4 3.25 µM

COc1cc([C@@H]2c3cc4c(cc3[C@@H](c3c(O)cc(O)c5c3O[C@H](c3ccc(O)c(O)c3)[C@H](OC(=O)c3cc(O)c(O)c(O)c3)C5)[C@H]3COC(=O)[C@H]23)OCO4)cc(OC)c1OC
inactive: SW-620 5.87 µM | NCI/ADR-RES 33 µM | SN12C 12.9 µM | RPMI-8226 5 µM | A549 11.9 µM | HOP-92 > 100 µM | SNB-19 52.7 µM | UACC-257 43.1 µM | UACC-62 4.73 µM | SF-268 5.79 µM | MDA-N 3.07 µM | BT-549 > 34.4 µM | NCI-H226 2.65 µM | CCRF-CEM 2.44 µM | ACHN 1.33 µM | NCI-H522 3.92 µM | NCI-H460 7.33 µM | MOLT-4 7.74 µM

C=C1C(=O)OC2/C=C(\C)C(O)CC(O)C(C)(O)CC(OC(=O)/C(C)=C/C)C12 (stereo not given)
inactive: SW-620 35.6 µM | SN12C 39.8 µM | RPMI-8226 23 µM | A549 53.6 µM | HOP-92 41.9 µM | SNB-19 66.5 µM | UACC-257 83.8 µM | UACC-62 33.7 µM | SF-268 42.3 µM | MDA-N 37.3 µM | BT-549 26.1 µM | NCI-H226 33.4 µM | CCRF-CEM 34.3 µM | ACHN 39.2 µM | NCI-H522 28.1 µM | NCI-H460 32.1 µM | HL-60 39.9 µM | UO-31 44.6 µM | MOLT-4 1.34 µM

C=C1OC2OC(C)C(NC(=O)OCC(Cl)(Cl)Cl)C(OC(C)=O)C2O1 (stereo not given)
inactive: SW-620 > 100 µM | NCI/ADR-RES > 100 µM | SN12C > 100 µM | RPMI-8226 > 100 µM | A549 > 100 µM | HOP-92 > 100 µM | SNB-19 > 100 µM | UACC-257 > 100 µM | UACC-62 > 100 µM | SF-268 > 100 µM | BT-549 > 100 µM | NCI-H226 43.6 µM | CCRF-CEM > 100 µM | ACHN > 100 µM | NCI-H522 > 100 µM | NCI-H460 > 100 µM | HL-60 > 100 µM | UO-31 > 100 µM | MOLT-4 > 100 µM

O=c1c2cc(Cl)cc(Cl)c2oc2nc3n(c(=O)c12)CCCS3
inactive: SW-620 > 100 µM | NCI/ADR-RES > 100 µM | SN12C > 100 µM | RPMI-8226 > 100 µM | A549 > 100 µM | HOP-92 > 100 µM | SNB-19 > 100 µM | UACC-257 > 100 µM | UACC-62 > 100 µM | SF-268 > 100 µM | MDA-N > 100 µM | BT-549 47.6 µM | NCI-H226 > 100 µM | CCRF-CEM 92.5 µM | ACHN > 100 µM | NCI-H522 16.7 µM | NCI-H460 > 100 µM | UO-31 18.8 µM | MOLT-4 57.8 µM

OC(Cc1ccc2ccccc2n1)(C(F)(F)Cl)C(F)(F)Cl
inactive: SW-620 > 10 µM | NCI/ADR-RES > 10 µM | SN12C > 10 µM | A549 > 10 µM | HOP-92 > 10 µM | SNB-19 > 10 µM | UACC-257 > 10 µM | UACC-62 > 10 µM | SF-268 > 10 µM | MDA-N > 10 µM | BT-549 > 10 µM | NCI-H226 > 10 µM | CCRF-CEM > 10 µM | ACHN > 10 µM | NCI-H522 > 10 µM | NCI-H460 > 10 µM | UO-31 > 10 µM | MOLT-4 > 10 µM

COC(=O)[C@@H]1[C@H](O)CCC2=C(CC(=O)c3ccoc3)[C@H](C)CC[C@]21C
inactive: SW-620 36.9 µM | NCI/ADR-RES 22.2 µM | SN12C > 50 µM | A549 > 50 µM | HOP-92 > 50 µM | SNB-19 > 50 µM | UACC-257 22.9 µM | UACC-62 25.4 µM | MDA-N 24.5 µM | BT-549 18.8 µM | NCI-H226 46.2 µM | ACHN > 50 µM | NCI-H460 23.9 µM | UO-31 19.5 µM
